# Where a name gives a salt, the structure may show the parent alone.
row,melting point,SMILES
1,144 to 149 °C,"Nc1cc(F)ccc1N1CCN2C[C@H](COc3ccc(F)cc3)CC[C@H]2C1 [Example 24, (7R,9aS)-7-(4-Fluorophenoxy)methyl-2-(2-amino-4-fluorophenyl)-2,3,4,6,7,8,9,9a-octahydro-1H-pyrido[1,2-a]pyrazine]"
2,246 to 250 °C,"Fc1ccc(OC[C@@H]2CC[C@H]3CN(c4cccnn4)CCN3C2)cc1 (racemic) (as salt: sulfate) [Example 35, (7RS,9aSR)-7-(4-Fluorophenoxy)methyl-2-(pyridazin-3-yl)-2,3,4,6,7,8,9,9a-octahydro-1H-pyrido[1,2-a]pyrazine]"
3,201 to 210 °C,"CSc1nc(N2CCN3CC(COc4ccc(F)cc4)CCC3C2)ncc1F (stereo not drawn) [Example 6, (7RS,9aSR)-7-(4-Fluorophenoxy)methyl-2-(5-fluoro-4-thiomethyl-pyrimidin-2-yl)-2,3,4,6,7,8,9,9a-octahydro-1H-pyrido[1,2-a]pyrazine]"
4,174 to 176 °C,"O=C1Cc2ccccc2N1C[C@@H]1CC[C@H]2CN(c3ncccn3)CCN2C1 [Example 44, 1-[(7R,9aS)-2-(Pyrimidin-2-yl)-2,3,4,6,7,8,9,9a-octahydro-1H-pyrido[1,2-a]pyrazin-7-ylmethyl]-1,3-dihydro-indol-2-one]"
5,147 to 148 °C,c1ccc(O[C@@H]2CC[C@H]3CN(c4ncccn4)CCN3C2)cc1 (racemic)
6,214 to 215 °C,"Fc1ccc(OC[C@@H]2CC[C@H]3CN(c4ccc(F)cn4)CCN3C2)cc1 (racemic) [Example 28, (7RS,9aSR)-7-(4-Fluorophenoxy)methyl-2,3,4,6,7,8,9,9a-octahydro-2-(5-fluoropyridin-2-yl)-1H-pyrido[1,2-a]pyrazine]"
7,155 to 157 °C,"O=S(=O)(C[C@@H]1CCC2CN(c3ncccn3)CCN2C1)c1ccc(F)cc1 (stereo partly drawn) [Example 42, (7RS,9aSR)-7-(4-Fluorophenylsulfonyl)methyl-2-(pyrmidin-2-yl)-2,3,4,6,7,8,9,9a-octahydro-1H-pyrido[1,2-a]pyrazine]"
8,180 to 182 °C,"Fc1cnc(N2CCN3C[C@H](Cn4ccc5cc(F)ccc54)CC[C@H]3C2)nc1 [Example 43, (7R,9aS)-7-(5-Fluoroindol-1-yl)methyl-2-(5-fluoropyrimidin-2-yl)-2,3,4,6,7,8,9,9a-octahydro-1H-pyrido[1,2-a]pyrazine]"
9,99 to 101 °C,Fc1ccc(SC[C@@H]2CCC3CN(c4ncccn4)CCN3C2)cc1 (some centres unmarked) [Example 41]
10,215 to 217 °C,"Fc1cnc(N2CCN3C[C@H](COc4ccccc4)CC[C@H]3C2)nc1 (racemic) [Example 5, (7RS,9aSR)-7-Phenoxymethyl-2-(5-fluoropyrimidin-2-yl)-2,3,4,6,7,8,9,9a-octahydro-1H-pyrido[1,2-a]pyrazine]"
11,> 265 °C (dec.),c1ccc(OC[C@@H]2CC[C@H]3CN(c4ccncn4)CCN3C2)cc1 (racemic)
12,265 to 270 °C,"Fc1ccc(OC[C@@H]2CC[C@H]3CN(c4ccc(Cl)nn4)CCN3C2)cc1 [Example 20, (7R,9aS)-7-(4-Fluorophenoxy)methyl-2-(6-chloropyridazin-3-yl)-2,3,4,6,7,8,9,9a-octahydro-1H-pyrido[1,2-a]pyrazine]"
13,70 to 72 °C,"Fc1ccc2c(ccn2C[C@@H]2CC[C@H]3CN(c4ncccn4)CCN3C2)c1 (racemic) [Example 40, (7RS,9aSR)-7-(5-Fluoroindol-1-ylmethyl)-2-(pyrimidin-2-yl)-2,3,4,6,7,8,9,9a-octahydro-1H-pyrido[1,2-a]pyrazine]"
14,218 to 224 °C,"Clc1ccc(N2CCN3C[C@H](COc4ccccc4)CC[C@H]3C2)nc1 (racemic) [Example 17, (7RS,9aSR)-7-Phenoxymethyl-2-(5-chloropyridin-2-yl)-2,3,4,6,7,8,9,9a-octahydro-1H-pyrido[1,2-a]pyrazine]"
15,247 to 248 °C,"Fc1ccc(OC[C@@H]2CC[C@H]3CN(c4ncc(Cl)cc4Cl)CCN3C2)cc1 (racemic) [Example 15, (7RS,9aSR)-7-(4-Fluorophenoxy)methyl-2-(3,5-dichloropyridin-2-yl)-2,3,4,6,7,8,9,9a-octahydro-1H-pyrido[1,2-a]pyrazine]"
16,247 °C (dec.),"Clc1cncc(N2CCN3C[C@H](COc4ccccc4)CC[C@H]3C2)n1 (racemic) [Example 31, (7RS,9aSR)-7-Phenoxymethyl-2-(6-chloropyrazin-2-yl)-2,3,4,6,7,8,9,9a-octahydro-1H-pyrido[1,2-a]pyrazine]"
17,> 265 °C (dec.),"Clc1ccc(N2CCN3C[C@H](COc4ccccc4)CC[C@H]3C2)nn1 (racemic) [Example 33, (7RS,9aSR)-7-Phenoxymethyl-2-(6-chloropyridazin-3-yl)-2,3,4,6,7,8,9,9a-octahydro-1H-pyrido[1,2-a]pyrazine]"
18,247 to 252 °C,Fc1ccc(OC[C@@H]2CCC3CN(c4ccccc4)CCN3C2)cc1 (some centres unmarked) [Example 26]
19,250 to 252 °C,"Fc1cnc(N2CCN3C[C@H](CCc4ccccc4)CC[C@H]3C2)nc1 [Example 12, (7R,9aS)-7-(2-Phenyl)ethyl-2-(5-fluoropyrimidin-2-yl)-2,3,4,6,7,8,9,9a-octahydro-1H-pyrido[1,2-a]pyrazine]"
20,228 to 230 °C,"COc1cccc(N2CCN3C[C@H](COc4ccc(F)cc4)CCC3C2)n1 (stereo partly drawn) [Example 27, (7RS,9aSR)-7-(4-Fluorophenoxy)methyl-2-(6-methoxypyridin-2-yl)-2,3,4,6,7,8,9,9a octahydro-1H-pyrido[1,2-a]pyrazine]"
21,217 to 219 °C,"c1ccc(OC[C@@H]2CC[C@H]3CN(c4cnccn4)CCN3C2)cc1 (racemic) [Example 30, (7RS,9aSR)-7-Phenoxymethyl-2-(pyrazin-2-yl)-2,3,4,6,7,8,9,9a-octahydro-1H-pyrido[1,2-a]pyrazine]"
22,247 to 248 °C,"O=c1oc2ccccc2n1C[C@@H]1CC[C@H]2CN(c3ccc(Cl)cn3)CCN2C1 [Example 39, 3-[(7R,9aS)-2-(5-Chloropyridin-2-yl)-2,3,4,6,7,8,9,9a-octahydro-1H-pyrido[1,2-a]-pyrazin-7-ylmethyl]-3H-benzoxazol-2-one]"
23,227 to 233 °C (dec.),"Clc1nccc(N2CCN3C[C@H](COc4ccccc4)CC[C@H]3C2)n1 (racemic) [Example 29, (7RS,9aSR)-7-Phenoxymethyl-2-(2-chloropyrimidin-4-yl)-2,3,4,6,7,8,9,9a-octahydro-1H-pyrido[1,2-a]pyrazine]"
24,235 to 240 °C,"N#Cc1cc(F)ccc1N1CCN2C[C@H](COc3ccc(F)cc3)CC[C@H]2C1 (racemic) [Example 23, (7RS,9aSR)-7-(4-Fluorophenoxy)methyl-2-(2-cyano-4-fluorophenyl)-2,3,4,6,7,8,9,9a-octahydro-1H-pyrido[1,2-a]pyrazine]"
25,261 to 263 °C,"Fc1ccc(OC[C@@H]2CC[C@H]3CN(c4ccccn4)CCN3C2)cc1 [Example 18, (7R,9aS)-7-(4-Fluorophenoxy)methyl-2-(pyridin-2-yl)-2,3,4,6,7,8,9,9a-octahydro-1H-pyrido[1,2-a]pyrazine]"
26,192 to 198 °C,"CSc1nc(N2CCN3CC(COc4ccccc4)CCC3C2)ncc1F (stereo not drawn) [Example 4, (7RS,9aSR)-7-Phenoxymethyl-2-(5-fluoro-4-thiomethylpyrimidin-2-yl)-2,3,4,6,7,8,9,9a-octahydro-1H-pyrido[1,2-a]pyrazine]"
